This is an account of results in PMC10423028 (FEMS Microbiology Letters, 2023).

SMILES strings stand for the structures.

The target in this experiment is VFT^pp (periplasmic VFT domain of RmcA^pp) (Pseudomonas putida, UniProt Q88QU8). Kind of experiment: biochemical.

The Kd is the equilibrium constant for the complex coming apart.

Sequence of VFT^pp (periplasmic VFT domain of RmcA^pp) (Q88QU8 21-265): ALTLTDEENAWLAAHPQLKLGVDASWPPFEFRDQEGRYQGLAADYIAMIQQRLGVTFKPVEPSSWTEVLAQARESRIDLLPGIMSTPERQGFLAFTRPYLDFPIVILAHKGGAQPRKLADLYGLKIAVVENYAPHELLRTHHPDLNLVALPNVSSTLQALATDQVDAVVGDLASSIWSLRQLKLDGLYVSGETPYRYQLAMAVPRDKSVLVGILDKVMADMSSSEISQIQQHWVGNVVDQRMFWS

For `N=C(N)NCCC[C@H](N)C(=O)O` [L-arginine], binding was characterised by a dissociation constant (Kd) of 7.1 ± 2.2 µM.
